Laboratory results: patent publication EP1574201B1, “Composition comprising benzyloxyethanol as preservative” (KAO CORPORATION, priority 2004, dated 2005)

Assays:
[1] = system: Staphylococcus aureus IFO 13276, Escherichia coli IFO 3972, and Pseudomonas aeruginosa IFO 13275; test: Preservative efficacy test (reduction in count of viable bacteria); assay type: cell-based; conditions: BOE and methyl paraben in combination versus each alone
Description: Preservative efficacy test was performed at 30°C by use of the bacteria written below and a sample (50 g) having a composition shown in the below-described Table 2, and the preservative efficacy was evaluated on the reduction in count of viable bacteria. The following test microorganisms are challenged: Staphylococcus aureus IFO 13276, Escherichia coli IFO 3972, and Pseudomonas aeruginosa IFO 13275.

[2] = system: Staphylococcus aureus IFO 13276; test: MIC by agar plate method; assay type: cell-based; conditions: SCD agar medium
Description: (§1) The minimum inhibitory concentration (MIC) of benzyloxyethanol against bacteria and fungi was determined by means of the agar plate method. There were employed the following microbial strains: Staphylococcus aureus IFO 13276, Escherichia coli IFO 3972, Pseudomonas aeruginosa IFO 13275, and Alcaligenes faecalis IFO 13111, and the following fungal strains: Penicillium citrinum IFO 6352 , Cladosporium cladosporoides IFO 6348 and Aspergillus niger IFO 6341. The media used in the test […] agar medium (product of Wako Pure Chemical Industries, Ltd.) for the bacteria, and GP agar medium (product of Wako Pure Chemical Industries, Ltd.) for the fungi, to which various concentration of benzyloxyethanol was added.

[3] = system: Alcaligenes faecalis IFO 13111; test: MIC by agar plate method; assay type: cell-based; conditions: SCD agar medium
Description: as §1

[4] = system: Escherichia coli IFO 3972; test: MIC by agar plate method; assay type: cell-based; conditions: SCD agar medium
Description: as §1

[5] = system: Pseudomonas aeruginosa IFO 13275; test: MIC by agar plate method; assay type: cell-based; conditions: SCD agar medium
Description: as §1

[6] = system: Cladosporium cladosporoides IFO 6348; test: MIC by agar plate method; assay type: cell-based; conditions: GP agar medium
Description: as §1

[7] = system: Aspergillus niger IFO 6341; test: MIC by agar plate method; assay type: cell-based; conditions: GP agar medium
Description: as §1

[8] = system: Penicillium citrinum IFO 6352; test: MIC by agar plate method; assay type: cell-based; conditions: GP agar medium
Description: as §1

[9] = guinea pig, in vivo
Description: Guinea pig maximization test was performed. Specifically, groups of guinea pigs, each group consisting of 10 guinea pigs, were employed, and each animal was given interedermal injection of.0.3(W/V)% benzyloxyethanol and 30(W/V)% benzyloxyethanol was applied occlusive patch. Subsequently, challenge was performed at a concentration of benzyloxyethanol at which no irritation occurs.

| SMILES | available amounts for the required reduction were reduced by [1] [%] | MIC (%) [2] [%] | MIC (%) [3] [%] | MIC (%) [4] [%] | MIC (%) [5] [%] | MIC (%) [6] [%] | MIC (%) [7] [%] | MIC (%) [8] [%] | positive rate [9] [%] |
| --- | --- | --- | --- | --- | --- | --- | --- | --- | --- |
| OCCOCc1ccccc1 [benzyloxyethanol] | 40 | 1.4 | 0.8 | 0.8 | 1.0 | 0.2 | 0.8 | 0.8 | 0 |
| COC(=O)c1ccc(O)cc1 [methyl paraben, reference compound] | 75 | – | – | – | – | – | – | – | – |
